Data: PMC4511154 (Journal of molecular microbiology and biotechnology, 2015)

Columns and labels:
TagK-TF^His6 = TagK-TF^His6 (Bacillus licheniformis, UniProt Q65EY9); experiment: coupled assay LacD/TPI/G3PDH, NADH oxidation at […] nm; type: biochemical; settings: read-out: % residual activity at 10 mM
purified protein = substrate: O=C(COP(=O)(O)O)[C@@H](O)[C@@H](O)[C@H](O)CO; experiment: purified protein; type: biochemical, Bacillus licheniformis; settings: 2 mM ATP, 10 mM MgCl2, 50 mM Tris-HCl pH 8.0, 25 °C

Row | remaining activity at 10000 µM (TagK-TF^His6) [%] | Molecule | Km (purified protein) [mM] | kcat (purified protein) [s⁻¹]
1 | 69 | O=P(O)(O)OC[C@H]1OC(O)(CO)[C@@H](O)[C@@H]1O (stereo partly drawn) [Fru-6P, D-fructose 6-phosphate] | – | –
2 | 43 | O=P(O)(O)OC[C@H]1OC(O)(CO)[C@@H](O)[C@H]1O (stereo partly drawn) [Tag-6P, D-tagatose-6-phosphate] | – | –
3 | – | TagK-TF^His6 (Bacillus licheniformis DSM 13 = ATCC 14580) (protein) MIYTCTMNTAVDLFVETDELLPDVVNRTKDEDYQPNGKGVNISFMLKRLGLDNTALGFTGGFTGRFIENELLNEKIVTDFVEVEGISRINIFINSTREFKIVNKGPLISEARKQELINKIRQIPPGRFLFISGSLPRGVPDDMYLSLSEIAAENKLKLILDISSPVLLDCLSYHPYLIKPNEQELAAFFSRKKALSEEEIIHCGKELLDRGAERVLISRGKDGALYLDRQRTLKATAAKGKVVNTACAGDAMLAVFVGKQELGCSVPEALRHASAAGSLTAFSKGLGDVSKLDQTASQIQITHL | 3.2 ± 0.4 | 0.44 ± 0.01
